One test concerns HCMV. The test is described as follows: HCMV inhibition (virus replication assay, plaque assay, GFP infection assay or indirect immunofluorescence analysis). Format: cell-based. To be noted: Human betaherpesvirus 5, read-out: IC50 HCMV. How it is done: (§1) To perform initial tests for compounds that inhibit RICK activity in a cellular assay, RICK was transiently overexpressed in HEK-293 cells, immunoprecipitated and incubated with different concentrations of test compounds before in-vitro kinase assays were performed (Example 10). According to the method for identifying compounds useful for inhibiting the cellular kinase RICK and therefore useful for treating and/or preventing Cytomegalovirus infection and/or diseases associated with Cytomegalovirus infection, a test compound is contacted with the cellular kinase RICK according to the RICK assay protocol disclosed in example 10. The test compound dissolved in DMSO is added to the RICK assay solution at concentrations between 100 nM and 50 μM. Thereafter, radioactively labeled ATP is added and kinase activity of RICK is determined by detecting the autophosphorylation of RICK via radioactivity measurement. The five compounds listed in the following Table 1 were identified using said method. […] The IC50 values of HCMV inhibition were obtained by the use of at least one assay protocol selected from a) virus replication assay, b) plaque assay, c) GFP (Green Fluorescent Protein) infection assay, and d) indirect immunofluorescence analysis as disclosed in example 12. Thus, the five compounds A to E mentioned below and/or pharmaceutically acceptable salts thereof can be used as inhibitors of the cellular protein kinase RICK and as pharmaceutically active compounds for the treatment and/or prophylaxis of HCMV infection. Furthermore, these compounds are suitable for the manufacture of a pharmaceutical composition for prophylaxis and/or treatment of Cytomegalovirus infection and/or diseases associated therewith.
(§2) To perform initial tests for compounds that inhibit RIP activity in a cellular assay, RIP was transiently overexpressed in HEK-293 cells, immunoprecipitated and incubated with different concentrations of test compounds before in-vitro kinase assays were performed (Example 11). In order to identify compounds suitable for inhibiting the cellular kinase RIP and, thus, suitable for treating and/or preventing Cytomegalovirus infection and/or diseases associated with Cytomegalovirus infection the inventive method according to claim 1 was used. A test compound was contacted with the cellular kinase RIP according to the RIP assay protocoll disclosed in example 11. The test compound dissolved in DMSO is added to the RIP assay solution at concentrations between 100 nM and 50 μM. Radioactively labeled ATP was used as co-substrate of RIP and auto-phosphorylation was detected via measurement of incorporation of radioactivity into the RIP protein. Thereafter, phosphorylation rates with and without test compounds were compared. […] The IC50 values of HCMV inhibition were obtained by the use of at least one assay protocol selected from a) virus replication assay, b) plaque assay, c) GFP infection assay, and d) indirect immunofluorescence analysis as disclosed in example 12.
Primary human foreskin fibroblasts (HFF) were cultivated in MEM containing 5% (v/v) fetal calf serum. Infection analysis was restricted to cell passage numbers below twenty. Human cytomegalovirus strain AD169 (ATCC) was grown in HFF cells and quantitated for infectivity by the plaque reduction assay. Aliquots were stored at −80° C.
HFF cells were cultivated in 12-well plates to 90-100% confluency and used for infection with dilutions of virus-positive cell culture supernatants. Virus inoculation was performed for 90 min at 37° C. under occasional shaking before virus was removed and the cell layers were rinsed with PBS. Overlays of MEM 5% (v/v) fetal calf serum and 0.3% (w/v) agarose were added to each well and all samples were incubated at 37° C. in a 5% CO2 atmosphere for approximately 12 days. Finally, overlays were removed and the formation of foci was visualized by staining with 1% crystal violet in 20% ethanol for 1 min. […]

The target in a further test is T1, RIP (Homo sapiens, UniProt Q13546).
T1 construct: made in house; host or cells: HEK 293 (transient transfection, pcDNA3), immunoprecipitated with anti-HA antibody
T1 sequence (Q13546 1-671 A438V): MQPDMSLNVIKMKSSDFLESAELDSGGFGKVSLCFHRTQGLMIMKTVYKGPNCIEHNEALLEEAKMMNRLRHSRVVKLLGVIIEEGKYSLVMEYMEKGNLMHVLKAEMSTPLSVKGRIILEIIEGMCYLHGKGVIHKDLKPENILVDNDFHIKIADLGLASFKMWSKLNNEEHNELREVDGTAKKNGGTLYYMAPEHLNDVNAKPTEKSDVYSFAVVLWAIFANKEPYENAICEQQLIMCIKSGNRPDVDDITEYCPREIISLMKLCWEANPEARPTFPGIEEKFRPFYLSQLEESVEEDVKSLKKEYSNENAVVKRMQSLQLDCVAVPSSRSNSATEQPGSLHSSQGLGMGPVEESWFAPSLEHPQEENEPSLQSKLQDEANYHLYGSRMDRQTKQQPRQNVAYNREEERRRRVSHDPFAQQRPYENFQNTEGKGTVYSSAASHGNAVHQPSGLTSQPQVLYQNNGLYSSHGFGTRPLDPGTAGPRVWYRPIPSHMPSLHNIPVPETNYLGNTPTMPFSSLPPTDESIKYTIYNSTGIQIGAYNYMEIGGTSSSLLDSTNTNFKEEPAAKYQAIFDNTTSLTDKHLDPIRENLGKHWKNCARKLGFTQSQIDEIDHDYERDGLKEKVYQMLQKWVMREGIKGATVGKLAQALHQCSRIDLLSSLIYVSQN
Description: RIP-kinase assay (autophosphorylation of immunoprecipitated RIP-HA, radioactively labeled ATP). Format: biochemical. To be noted: in-vitro kinase assay, compound 100 nM to 50 μM, 30 min at 30° C. How it is done:
as §2
To obtain active RIP kinase the human RIP-cDNA was fused with a DNA sequence coding for the HA-tag and cloned into the eucaryotic expression vector pcDNA3 (Invitrogene). This construct was transfected into human embryonic kidney cells (HEK 293) via the calcium-phosphate DNA co-precipitation method. Two days after transfection cells were washed with PBS and harvested and lysed in lysis-buffer (150 mM NaCl, 1 mM EDTA, 1% Tritron X-100, 20 mM Tris-HCl pH 7.5 and freshly added: 30 mM NaF, 10 μg/ml Aprotinine, 10 μg/ml Leupeptine, 2 mM Na-pyrophosphate). […] Phosphorylation products were analyzed by SDS-PAGE and autoradiography (x-ray film and phosphor imager).

The target in the next test is T2, RICK (Homo sapiens, UniProt O43353).
T2 construct: made in house; host or cells: HEK 293 (transient transfection, pcDNA3), immunoprecipitated with anti-HA antibody
Description: RICK-kinase assay (autophosphorylation of immunoprecipitated RICK-HA, radioactively labeled ATP). Format: biochemical. Conditions: in-vitro kinase assay, compound 100 nM to 50 μM, 30 min at 30° C. How it is done:
as §1
To obtain active RICK kinase the human RICK-cDNA was fused with a DNA sequence coding for the HA-tag and cloned into the eucaryotic expression vector pcDNA3 (Invitrogene). This construct was transfected into human embryonic kidney cells (HEK 293) via the calcium-phosphate co-precipitation method. One day after transfection medium was replaced by fetal calf serurum-free medium and two days after transfection cells were washed with PBS and harvested and lysed in RIPA-buffer (150 mM NaCl, 1 mM EDTA, 1% Tritron X-100, 1% Na-desoxycholate, 0.1% SDS, 10 mM Tris-HCl pH 7.5). The RICK-HA fusion protein was immunoprecipitated from 250 μl cleared lysate (i.e. lysate of one well of a six-well plate) utilizing an anti-HA antibody from Roche Pharmaceuticals and Protein A sepharose. After addition of 500 μl of HNTG-buffer (50 mM HEPES pH 7.5, 150 mM NaCl, 1 mM EDTA, 10% glycerine, 0.1% Triton X-100) the sample was rotated for 3 hrs at 4° C. After washing the immunoprecipitate twice with 0.5 ml HNTG-buffer and twice with 0.5 ml assay-buffer (25 mM Tris-HCl pH 7.5, 3 mM MgCl2, 0.5 mM MnCl2, 0.5 mM DTT and 50 mM NaCl), the kinase reaction was performed directly on the beads in 40 μl assay buffer containing 2.5 μCi γ[^33P]-ATP and various concentrations (between 100 nM and 50 μM) of compounds of Table 1. After 30 min at 30° C., the reaction was stopped by addition of 40 μl 3×Laemmli-buffer (16% glycerol, 1.01M β-mercaptoethanol, 5% SDS, 200 mM Tris/HCl pH 6.8, 8% bromphenolblue). Phosphorylation products were analyzed by SDS-PAGE and auroradiography (x-ray film and phosphor imager).

T2 sequence (O43353 whole entry): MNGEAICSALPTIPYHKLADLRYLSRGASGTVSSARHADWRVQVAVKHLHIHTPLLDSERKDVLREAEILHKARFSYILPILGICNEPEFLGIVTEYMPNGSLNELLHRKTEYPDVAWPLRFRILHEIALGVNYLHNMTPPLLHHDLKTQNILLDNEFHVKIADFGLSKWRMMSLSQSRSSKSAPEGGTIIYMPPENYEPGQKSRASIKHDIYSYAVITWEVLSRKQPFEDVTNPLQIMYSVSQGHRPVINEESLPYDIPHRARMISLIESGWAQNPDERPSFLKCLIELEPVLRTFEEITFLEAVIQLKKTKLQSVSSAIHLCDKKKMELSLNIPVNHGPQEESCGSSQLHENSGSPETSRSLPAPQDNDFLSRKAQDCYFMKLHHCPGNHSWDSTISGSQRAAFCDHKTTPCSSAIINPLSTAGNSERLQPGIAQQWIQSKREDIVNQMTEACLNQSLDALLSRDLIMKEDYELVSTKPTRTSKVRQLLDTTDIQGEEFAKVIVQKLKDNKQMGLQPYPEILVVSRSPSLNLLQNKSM

In general, IC50 refers to the concentration needed to halve the response being measured. In the case of `O=C1NC(=O)c2ccccc2/C1=C/c1ccnc2ccccc12` [Compound H, 4-Quinolin-4-ylmethylene-4H-isoquinoline-1,3-dione], the IC50 worked out at 12 µM with HCMV and 5 µM at RIP.
In the case of `CN1CCN(CCCNc2ncc3cc(-c4c(Cl)cccc4Cl)c(=O)n(C)c3n2)CC1` [Compound C, 6-(2,6-Dichlorophenyl)-8-methyl-2-[3-(4-methylpiperazin-1-yl)-propylamino]-8H-pyrido[2,3-d]pyrimidin-7-one], the IC50 at RICK turned out to be 1 µM; with HCMV, 6.2 µM.
On the same counts, the results for `Cn1c(=O)c(-c2ccccc2)cc2cnc(Nc3ccncc3)nc21` [Compound B, 8-methyl-6-phenyl-2-(pyridin-4-yl-amino)-8H-pyrido[2,3-d]pyrimidin-7-one] are 0.5 µM and 1.4 µM.
On the same counts, the results for `COc1cc2ncnc(Nc3cccc(Br)c3)c2cc1OC` [Compound E, (3-Bromophenyl)-(6,7-dimethoxyquinazolin-4-yl)-amine] are 0.5 µM and 5.7 µM.
For the molecule `O=c1c(O)c(-c2ccc(O)c(O)c2)oc2cc(O)cc(O)c12` [Compound F, 2-(3,4-Dihydroxyphenyl)-3,5,7-trihydroxychromen-4-one], the results for the IC50 with HCMV and on RIP were 15 µM and 5 µM, respectively.
Consider `Cn1c(=O)c(-c2c(Cl)cccc2Cl)cc2cnc(NCCCN3CCOCC3)nc21` [Compound A, 6-(2,6-Dichlorophenyl)-8-methyl-2-(3-morpholin-4-yl-propylamino)-8H-pyrido[2,3-d]pyrimidin-7-one], for which the IC50 was determined as 1 µM at RICK and 6.8 µM in the test with HCMV.
Consider `O=C1Nc2ccc(Cl)cc2/C1=C/c1ccc[nH]1` [Compound G, 5-Cloro-3-(1H-pyrrol-2-ylmethylene)-1,3-dihydroindol-2-one], for which the half-maximal inhibitory concentration (IC50) is 15 µM in the test with HCMV and 10 µM at RIP.
On to `CCOc1cc2ncnc(Nc3cccc(Br)c3)c2cc1OCC` [Compound D, (3-Bromophenyl)-(6,7-diethoxyquinazolin-4-yl)-amine], for which the IC50 at RICK was determined as 0.5 µM; in the test on HCMV it was 7.6 µM.

The record behind these values is patent publication US6849409B2, “Cellular kinases involved in Cytomegalovirus infection and their inhibition” (Axxima Pharmaceuticals AG, priority 2000, dated 2005).
